Laboratory results reported in article PMC10958001, “THOUSAND-GRAIN WEIGHT 6, which is an IAA-glucose hydrolase, preferentially recognizes the structure of the indole ring” (Scientific Reports, 2024).

How the values were obtained:
[1] = target: T1, TGW6 (THOUSAND-GRAIN WEIGHT 6), IAA-glucose hydrolase (Oryza sativa, UniProt Q69U01); experiment: thermal shift (UNCLE, intrinsic Trp fluorescence BCM); format: binding; conditions: 27.6 μM TGW6, 55.0 μM ligand, 2 mM CaCl2, pH 7.0
T1 construct: gene Os06g0623700; recombinant; N-terminal Trx-(His)6 tag cleaved with thrombin; E. coli Rosetta-gami 2(DE3); purified
T1 sequence (Q69U01 31-350): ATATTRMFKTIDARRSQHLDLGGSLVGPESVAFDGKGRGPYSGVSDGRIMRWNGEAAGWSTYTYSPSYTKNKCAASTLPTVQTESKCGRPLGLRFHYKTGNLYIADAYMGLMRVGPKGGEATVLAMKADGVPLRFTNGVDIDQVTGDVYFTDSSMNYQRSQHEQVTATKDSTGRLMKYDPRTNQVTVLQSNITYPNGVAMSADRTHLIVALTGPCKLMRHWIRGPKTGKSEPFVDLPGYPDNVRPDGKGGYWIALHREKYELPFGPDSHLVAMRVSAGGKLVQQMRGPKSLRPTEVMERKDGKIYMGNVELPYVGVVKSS

[2] = target: T1, TGW6 (THOUSAND-GRAIN WEIGHT 6), IAA-glucose hydrolase; experiment: […] NMR fragment screening (CPMG R2 filter); format: binding; conditions: 298 K
[3] = 10 μM TGW6, 50 μM fragment in mixture

Row | SMILES | Tm shift [1] | other results
1 | O=C(O)Cc1c[nH]c2cccc(F)c12 [PK0-38501, 2-(4-Fluoro-1H-indol-3-yl)acetic acid] | ~ 7 °C | ΔIntensity (%) [2, 3]: − 46.5
2 | O=C(O)CCCc1c[nH]c2ccccc12 [IBA, indole 3-butyric acid] | > 3 °C | –
3 | C[C@H](NC(=O)Cc1c[nH]c2ccccc12)C(=O)O [IAA-Ala] | ~ 10 °C | –
4 | O=[N+]([O-])c1c(F)cccc1N1CCC(O)CC1 [CK0-02991, 1-(3-Fluoro-2-nitrophenyl)piperidin-4-ol] | – | ΔIntensity (%) [2, 3]: − 57.9
5 | O=C(O)C(c1c[nH]c2ccc(F)cc12)C(F)(F)F (stereo not shown) [PK0-42071, 3,3,3-Trifluoro-2-(5-fluoro-1H-indol-3-yl)propanoic acid] | – | ΔIntensity (%) ([2]; 10 μM TGW6, CF3-containing fragment at 17.5 μM in mixture): − 46.0
6 | O=C(Cc1c[nH]c2ccccc12)O[C@@H]1O[C@H](CO)[C@@H](O)[C@H](O)[C@H]1O [IAA-Glc, 1-O-indole-3-ylacetyl-β-D-glucose] | ~ 5 °C | –
7 | COC(=O)Cc1c[nH]c2ccccc12 [MeIAA, methyl indole 3-acetate] | > 3 °C | –
8 | O=C(O)Cc1c[nH]c2c(F)cccc12 [PK0-38511, 2-(7-Fluoro-1H-indol-3-yl)acetic acid] | ~ 9 °C | ΔIntensity (%) ([2]; 10 μM TGW6, 50 μM fragment in mixture, competitive with IAA-Glc): − 50.3
9 | O=[N+]([O-])c1ccc(OC2CCOCC2)c(F)c1 [CK0-03011, 4-(2-Fluoro-4-nitrophenoxy)tetrahydro-2H-pyran] | – | ΔIntensity (%) [2, 3]: − 45.4
10 | O=C(O)Cc1c[nH]c2ccccc12 [IAA, indole-3-acetic acid] | > 3 °C | –
11 | O=[N+]([O-])c1ccc(OCC2CCCO2)c(F)c1 (stereo not shown) [CK0-00681, 2-[(2-Fluoro-4-nitrophenoxy)methyl]tetrahydrofuran] | – | ΔIntensity (%) ([2]; 10 μM TGW6, 50 μM fragment in mixture, not competitive with IAA-Glc, different site implied): − 100.0
